Measurements published in patent US20260317367A1, “SALTS INCLUDING CRYSTALLINE SALTS OF 25-HYDROXY-CHOLEST-5-EN-3-SULFATE AND METHODS FOR PREPARING SAME” (Durect Corporation, priority 2022, published 2026).
Structures can show the parent of a compound that is named as a salt. Each block holds one compound with its values, some of them ahead of it.

How the values were obtained:
Type in all cases: physicochemical
[1] = Hausner ratio and compressibility index of 25HC3S salts; details: for Compressibility Index: Table C3 heads this index in %
Procedure, shortened: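 Powder poured into a 5 mL graduated cylinder to about 5.0 mL (Vo), tapped 200 then 100 more times on a hard surface; final volume Vf recorded after 300 taps. Compressibility index and Hausner ratio calculated from Vo and Vf; flow character classed per USP <1174>.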

[2] = Solid-state chemical stability of 25HC3S salts at 2-8° C., 60° C. and 80° C. (HPLC assay and degradation products); details: for % Impurities, Total / % Impurities, 25-HC: ND = Not Detected; for % Impurities, 25-HC: 25-Hydroxy-Cholesterol; for % Recovery: vs 2-8° C.
Procedure, shortened: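 Crystalline 25HC3S salts (~25 mg powder per vial) stored at 2-8° C. or 80° C., pulled at 3 and 6 weeks; some 3-week 2-8° C. vials moved to 60° C. for 1 week. Dissolved in 100% methanol (sonication/vortexing, centrifugation or dilution), then HPLC against 25HC3S sodium standards (0.75-1.25 mg/mL) for assay and degradants.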

[3] = Solubility of 25HC3S salts after one day at room temperature (HPLC, as free acid); details: one day
Procedure, shortened: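 25HC3S salts were shaken with excess solid at room temperature for one day in organic solvents or aqueous/biorelevant media (FaSSIF, FeSSIF, FaSSGF), then centrifuged. Supernatants were assayed by HPLC against a free-acid standard curve (11 μg/mL to 1.5 mg/mL); values are mg/mL free acid, LOD 0.0007 mg/mL.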

[4] = Appearance (color, clumping, flowability) of stored 25HC3S salts
[5] = Overall rank order of powder flowability (angle of repose and Hausner ratio); details: for Powder flowability, overall (in words): angle of repose and compressibility index/Hausner ratio combined; for Angle of Repose Rank Order / Hausner Ratio Rank Order / Overall Rank Order (Total Score): lower is better flow; for Overall Rank Order (Total Score): sum of both ranks
From the text: Table C5 was generated by adding the relative rank order of the 25HC3S salts for angle of repose and Hausner ratio results, and creating an Over All Rank Order of the salts powder flowability. The salts with the lower overall rank order score had better powder flowability.

[6] = listed as 25HC3S t-butylammonium
[7] = 2-8° C., 3 wk, listed as 25HC3S t-butylammonium
[8] = 2-8° C., 5 wk, listed as 25HC3S t-butylammonium
[9] = 80° C., 3 wk, listed as 25HC3S t-butylammonium
[10] = 80° C., 5 wk, listed as 25HC3S t-butylammonium
[11] = 80° C., 5 wk, 50400 min, listed as 25HC3S t-butylammonium
[12] = listed as 25HC3S diethanolamine
[13] = 2-8° C., 3 wk, listed as 25HC3S diethanolamine
[14] = 2-8° C., 5 wk, listed as 25HC3S diethanolamine
[15] = 80° C., 3 wk, listed as 25HC3S diethanolamine
[16] = 80° C., 5 wk, listed as 25HC3S diethanolamine
[17] = 80° C., 5 wk, 50400 min, listed as 25HC3S diethanolamine
[18] = room temperature, listed as crystalline 25HC3S diethanolamine
[19] = 2-8° C., 3 wk, listed as 25HC3S meglumine
[20] = 60° C., 1 wk, listed as 25HC3S meglumine
[21] = 80° C., 3 wk, listed as 25HC3S meglumine
[22] = room temperature, listed as crystalline 25HC3S meglumine

Compressibility Index [1, 6]: 33
Hausner Ratio [1, 6]: 1.48
Assay ([2]; 2-8° C., 3 wk, 30240 min, listed as 25HC3S t-butylammonium): 99.8 % w/w
% Impurities, Total [2, 7]: 1.5%
Assay ([2]; 2-8° C., 5 wk, 50400 min, listed as 25HC3S t-butylammonium): 106.2 % w/w
% Impurities, Total [2, 8]: 1.5%
Overall physical and chemical stability (in words) ([2]; 2-8° C., 60° C., 80° C.): physically and chemically stable
Overall physical and chemical stability (in words) ([2]; 2-8° C., 60° C., 80° C., listed as t-butylammonium): relatively stable
% Impurities, 25-HC [2, 7]: 0.3%
% Impurities, 25-HC [2, 8]: 0.3%
% Impurities, 25-HC [2, 9]: 0.3%
% Impurities, 25-HC [2, 10]: 0.2%
Stressed stability at 80° C. (in words) ([2]; 80° C.): good, stressed stability
% Recovery ([2]; 80° C., 3 wk, 30240 min, listed as 25HC3S t-butylammonium, 30240 min): 99.4%
Assay ([2]; 80° C., 3 wk, 30240 min, listed as 25HC3S t-butylammonium): 99.2 % w/w
% Impurities, Total [2, 9]: 1.7%
% Recovery, 2-8° C./5 wk vs 80° C./5 wk [2, 11]: 98.8%
Assay [2, 11]: 104.9 % w/w
% Impurities, Total [2, 10]: 1.6%
Stability after 5 weeks at 80° C. (in words) ([2]; solid state, 80° C., 5 weeks): stable
Solubility in FaSSGF (in words) ([3]; room temperature): high solubility
Solubility in FaSSIF (in words) ([3]; room temperature): high solubility
Solubility in FaSSIF (in words) ([3]; room temperature, listed as crystalline 25HC3S t-butylammonium): relatively high solubility
Solubility in FeSSIF (in words) ([3]; room temperature): high solubility
Appearance [4, 7]: White, free flowing powder with clumping
Appearance ([4]; 2-8° C., 5 wk): White, free flowing powder with clumping
Appearance [4, 9]: White, free flowing powder with clumping
Appearance ([4]; 80° C., 5 wk): White, free flowing powder with clumping
Powder flowability, overall (in words) ([5]; listed as t-butylammonium): poorer flowability
Angle of Repose Rank Order [5, 6]: 13
Hausner Ratio Rank Order [5, 6]: 8
Overall Rank Order (Total Score) [5, 6]: 21
Compound: CC(CCCC(C)(C)O)C1CCC2C3CC=C4CC(OS(=O)(=O)O)CCC4(C)C3CCC12C (stereo not drawn) [Salt #12]
Physical and chemical solid-state stability (comments) ([2]; 80° C., 5 weeks): Stable after 5 weeks at 80 °C physically and chemically.

Compressibility Index [1, 12]: 34
Hausner Ratio [1, 12]: 1.52
Assay ([2]; 2-8° C., 3 wk, 30240 min, listed as 25HC3S diethanolamine): 100.2 % w/w
% Impurities, Total [2, 13]: 1.8%
Assay ([2]; 2-8° C., 5 wk, 50400 min, listed as 25HC3S diethanolamine): 107.0 % w/w
% Impurities, Total [2, 14]: 1.9%
Overall physical and chemical stability (in words) ([2]; 2-8° C., 60° C., 80° C.): physically and chemically stable
Overall physical and chemical stability (in words) ([2]; 2-8° C., 60° C., 80° C., listed as diethanolamine): relatively stable
% Impurities, 25-HC [2, 13]: 0.4%
% Impurities, 25-HC [2, 14]: 0.4%
% Impurities, 25-HC [2, 15]: 0.9%
% Impurities, 25-HC [2, 16]: 1.2%
Stressed stability at 80° C. (in words) ([2]; 80° C.): good, stressed stability
% Recovery ([2]; 80° C., 3 wk, 30240 min, listed as 25HC3S diethanolamine, 30240 min): 99.4%
Assay ([2]; 80° C., 3 wk, 30240 min, listed as 25HC3S diethanolamine): 99.6 % w/w
% Impurities, Total [2, 15]: 2.8%
% Recovery, 2-8° C./5 wk vs 80° C./5 wk [2, 17]: 97.7%
Assay [2, 17]: 104.5 % w/w
% Impurities, Total [2, 16]: 3.5%
Stability after 5 weeks at 80° C. (in words) ([2]; solid state, 80° C., 5 weeks): stable
Solubility in FaSSGF (in words) ([3]; room temperature): high solubility
Solubility in FaSSIF (in words) ([3]; room temperature): high solubility
Solubility in FaSSIF (in words) [3, 18]: relatively high solubility
Solubility in FeSSIF (in words) ([3]; room temperature): high solubility
Solubility in FeSSIF (in words) [3, 18]: relatively high solubility
Solubility in FeSSIF ([3]; Fed State Simulated Intestinal Fluid, pH 4.9 to 5.0, room temperature, as free acid, 1440 min): 858 µg/mL
Solubility in methanol (in words) ([3]; MeOH, room temperature): did not reach saturation
Solubility in saline / 0.9% sodium chloride (in words) [3, 18]: low solubility
Appearance [4, 13]: White, free flowing powder with clumping
Appearance ([4]; 2-8° C., 5 wk): White, free flowing powder with clumping
Appearance [4, 15]: White, free flowing powder with clumping
Appearance ([4]; 80° C., 5 wk): White, free flowing powder with clumping
Powder flowability, overall (in words) ([5]; listed as diethanolamine): poorer flowability
Angle of Repose Rank Order [5, 12]: 14
Hausner Ratio Rank Order [5, 12]: 9
Overall Rank Order (Total Score) [5, 12]: 23
Compound: CC(CCCC(C)(C)O)C1CCC2C3CC=C4CC(OS(=O)(=O)O)CCC4(C)C3CCC12C (stereo not drawn) [Salt #10]
Physical and chemical solid-state stability (comments) ([2]; 80° C., 5 weeks): Stable after 5 weeks at 80 °C physically and chemically.

Compressibility Index ([1]; listed as 25HC3S meglumine): 36
Hausner Ratio ([1]; listed as 25HC3S meglumine): 1.56
Assay ([2]; 2-8° C., 3 wk, 30240 min, listed as 25HC3S meglumine): 98.3 % w/w
% Impurities, Total [2, 19]: 0.9%
% Impurities, 25-HC [2, 20]: 0.4%
Physical and chemical solid-state stability (comments) ([2]; 60° C., 1 week, listed as 25HC3S Meglumine): Stable after 1 week at 60 °C
Assay ([2]; 60° C., 1 wk (after 3 weeks at 2-8° C.), 10080 min, listed as 25HC3S meglumine, 10080 min): 104.6 % w/w
% Recovery of 2-8° C./3 wk vs 60° C./1 wk ([2]; 60° C., 1 wk, 10080 min, listed as 25HC3S meglumine): 106.4%
% Impurities, Total [2, 20]: 1.7%
Physical and chemical solid-state stability (comments) ([2]; 80° C., 3 weeks, listed as 25HC3S Meglumine): totally decomposed after 3
% Recovery ([2]; 80° C., 3 wk, 30240 min, listed as 25HC3S meglumine, 30240 min): 0.0%
Assay ([2]; 80° C., 3 wk, 30240 min, listed as 25HC3S meglumine): 0.0 % w/w
% Impurities, Total [2, 21]: 100.3%
Stability after 1 week at 60° C. (in words) ([2]; solid state, 60° C., 1 week (after 3 weeks at 2-8° C.)): stable
Stability after 3 weeks at 80° C. (in words) ([2]; solid state, 80° C., 3 weeks): totally decomposed
Solubility in FaSSGF (in words) ([3]; room temperature): high solubility
Solubility in FaSSGF (in words) [3, 22]: relatively high solubility
Solubility in FaSSIF (in words) ([3]; room temperature): high solubility
Solubility in FaSSGF ([3]; Fasted State Simulated Gastric Fluid, pH 1.6, room temperature, as free acid, LOD 0.0007 mg/mL, 1440 min): 48 µg/mL
Solubility in FeSSIF (in words) ([3]; room temperature): high solubility
Solubility in saline / 0.9% sodium chloride (in words) [3, 22]: low solubility
Appearance [4, 19]: White, free flowing powder, no clumping
Appearance ([4]; 60° C., 1 wk (after 3 weeks at 2-8° C.), listed as 25HC3S meglumine): White, free flowing powder, no clumping
Appearance after 3 weeks at 80° C. ([4]; 80° C., 3 weeks): completely burned
Appearance [4, 21]: Light brown, partially melted material
Powder flowability, overall (in words) ([5]; listed as meglumine): next group
Angle of Repose Rank Order ([5]; listed as 25HC3S meglumine): 5
Hausner Ratio Rank Order ([5]; listed as 25HC3S meglumine): 12
Overall Rank Order (Total Score) ([5]; listed as 25HC3S meglumine): 17
Compound: CC(CCCC(C)(C)O)C1CCC2C3CC=C4CC(OS(=O)(=O)O)CCC4(C)C3CCC12C (stereo not drawn) [Salt #7]
